target: T1, xanthine oxidase (Rattus norvegicus, UniProt P22985); assay: Effect of lowering serum uric acid level in vivo (oral, Wistar rats); conditions: male Wistar rats, 0.3 mg/5 ml/kg in 0.5% methylcellulose, blood collected 6 hours after administration
T1 construct: administered orally to seven-week-old male Wistar rats (4 rats per group); from tissue; host or cells: whole animal (male Wistar rats); the enzyme is endogenous and was not isolated
Description: Method for Evaluating the Effect of Lowering Serum Uric Acid Level In Vivo
Each of the test compounds was suspended in a 0.5% methylcellulose (MC) aqueous solution and administered orally to seven-week-old male Wistar rats (4 rats per group) compulsorily through a feeding tube at a dose of 0.3 mg/5 ml/kg (1 mg/5 ml/kg for Example 17 and Compound 44 of J. Medicinal Chemistry, (1975) as a control). The blood was collected from the orbital sinus at 6 hours after administration of the test compound. Each blood sample was allowed to clot for one hour and then centrifuged at 2000×g for 10 minutes to obtain serum. The uric acid level in the serum was determined using a kit (Wako Pure Chemicals Industries, Ltd.; phosphotungstic acid method) and a reduction rate of serum uric acid level was calculated by the following formula:
Reduction rate of serum uric acid level=(1-Average serum uric acid level in the group receiving a test compound/Average serum uric acid level in the group receiving MC)×100

T1 sequence (P22985 whole entry): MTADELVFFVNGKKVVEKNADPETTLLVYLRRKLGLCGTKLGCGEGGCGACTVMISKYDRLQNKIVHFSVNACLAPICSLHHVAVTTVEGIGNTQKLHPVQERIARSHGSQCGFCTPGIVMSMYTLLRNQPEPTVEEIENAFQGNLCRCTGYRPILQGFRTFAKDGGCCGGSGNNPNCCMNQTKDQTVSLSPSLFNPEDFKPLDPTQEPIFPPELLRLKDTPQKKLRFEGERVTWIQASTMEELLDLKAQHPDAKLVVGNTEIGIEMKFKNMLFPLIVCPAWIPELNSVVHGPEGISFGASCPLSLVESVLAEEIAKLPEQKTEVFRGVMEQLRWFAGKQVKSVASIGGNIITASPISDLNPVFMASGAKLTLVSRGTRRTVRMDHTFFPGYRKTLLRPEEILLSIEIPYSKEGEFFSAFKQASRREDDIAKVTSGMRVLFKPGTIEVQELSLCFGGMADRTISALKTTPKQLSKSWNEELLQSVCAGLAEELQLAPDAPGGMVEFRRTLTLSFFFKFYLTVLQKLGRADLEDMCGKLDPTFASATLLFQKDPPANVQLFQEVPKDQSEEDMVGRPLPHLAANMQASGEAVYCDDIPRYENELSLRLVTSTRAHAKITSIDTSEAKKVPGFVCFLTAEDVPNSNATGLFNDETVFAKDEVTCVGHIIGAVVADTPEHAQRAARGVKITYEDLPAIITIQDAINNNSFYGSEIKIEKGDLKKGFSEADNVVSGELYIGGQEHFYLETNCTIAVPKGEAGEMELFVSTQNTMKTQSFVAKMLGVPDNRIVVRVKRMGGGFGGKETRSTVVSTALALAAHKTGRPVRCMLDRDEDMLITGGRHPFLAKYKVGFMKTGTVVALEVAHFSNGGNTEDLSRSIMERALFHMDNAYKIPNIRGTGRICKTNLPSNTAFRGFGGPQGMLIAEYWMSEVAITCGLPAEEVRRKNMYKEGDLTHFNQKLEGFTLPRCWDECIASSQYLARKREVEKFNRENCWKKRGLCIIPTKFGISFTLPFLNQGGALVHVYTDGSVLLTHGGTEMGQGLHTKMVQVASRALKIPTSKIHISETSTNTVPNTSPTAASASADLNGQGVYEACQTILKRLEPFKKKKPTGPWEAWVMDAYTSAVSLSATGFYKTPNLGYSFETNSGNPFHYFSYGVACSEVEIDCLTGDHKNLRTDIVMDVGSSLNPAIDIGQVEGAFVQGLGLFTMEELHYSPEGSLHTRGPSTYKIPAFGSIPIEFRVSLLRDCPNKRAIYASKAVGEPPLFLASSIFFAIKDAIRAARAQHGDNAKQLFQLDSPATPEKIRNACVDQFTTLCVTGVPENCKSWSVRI

SMILES	Reduction rate of serum uric acid level [%]
Cc1cc(-c2nc(-c3ccc(OCC(C)C)c([N+](=O)[O-])c3)n[nH]2)ccn1 [Example 1, 3-(4-isobutoxy-3-nitrophenyl)-5-(2-methyl-4-pyridyl)-1,2,4-triazole]	66.5
CC(C)COc1ccc(-c2n[nH]c(-c3ccncc3)n2)cc1C#N [Example 2, 3-(3-cyano-4-isobutoxyphenyl)-5-(4-pyridyl)-1,2,4-triazole]	62.3
COCCOCOc1ccc(-c2n[nH]c(-c3ccnc(C)c3)n2)cc1C#N [Example 3, 3-[3-cyano-4-{(2-methoxy)ethoxymethyl}oxyphenyl]-5-(2-methyl-4-pyridyl)-1,2,4-triazole]	40.0
Cc1cc(-c2nc(-c3ccc(N4CCN(C)CC4)c([N+](=O)[O-])c3)n[nH]2)ccn1 [Example 4, 3-[4-(4-methyl-1-piperazino)-3-nitrophenyl]-5-(2-methyl-4-pyridyl)-1,2,4-triazole]	43.9
Cc1cc(-c2nc(-c3ccc(NCC(C)C)c([N+](=O)[O-])c3)n[nH]2)ccn1 [Example 5, 3-(4-isobutylamino-3-nitrophenyl)-5-(2-methyl-4-pyridyl)-1,2,4-triazole]	39.9
Cc1cc(-c2nc(-c3ccc(Sc4ccccc4)c([N+](=O)[O-])c3)n[nH]2)ccn1 [Example 6, 5-(2-methyl-4-pyridyl)-3-(3-nitro-4-phenylthiophenyl)-1,2,4-triazole]	40.6
Cc1cc(-c2nc(-c3ccc(SCC(C)C)c([N+](=O)[O-])c3)n[nH]2)ccn1 [Example 7, 3-(4-isobutylthio-3-nitrophenyl)-5-(2-methyl-4-pyridyl)-1,2,4-triazole]	42.7
Cc1cc(-c2nc(-c3ccc(OCSc4ccccc4)c([N+](=O)[O-])c3)n[nH]2)ccn1 [Example 8, 5-(2-methyl-4-pyridyl)-3-(3-nitro-4-phenylthiomethyloxyphenyl)-1,2,4-triazole]	32.5
CSCOc1ccc(-c2n[nH]c(-c3ccnc(C)c3)n2)cc1[N+](=O)[O-] [Example 9, 5-(2-methyl-4-pyridyl)-3-(4-methylthiomethyloxy-3-nitrophenyl)-1,2,4-triazole]	35.7
Cc1cc(-c2nc(-c3ccc(OCOCc4ccccc4)c([N+](=O)[O-])c3)n[nH]2)ccn1 [Example 10, 3-(4-benzyloxymethyloxy-3-nitrophenyl)-5-(2-methyl-4-pyridyl)-1,2,4-triazole]	41.6
Cc1cc(-c2nc(-c3ccc(OCC4CCCCO4)c([N+](=O)[O-])c3)n[nH]2)ccn1 (centres unmarked) [Example 11, 5-(2-methyl-4-pyridyl)-3-[3-nitro-4-(2-tetrahydropyranylmethyl)oxyphenyl]-1,2,4-triazole]	41.6
N#Cc1cc(-c2nc(-c3ccncc3)n[nH]2)ccn1 [Example 12, 5-(2-cyano-4-pyridyl)-3-(4-pyridyl)-1,2,4-triazole]	51.1
CC(C)COc1ccc(-c2n[nH]c(-c3ccncc3)n2)cc1[N+](=O)[O-] [Example 13, 3-(4-isobutoxy-3-nitrophenyl)-5-(4-pyridyl)-1,2,4-triazole]	46.8
Cc1cc(-c2nc(-c3ccc(OCC(C)C)c([N+](=O)[O-])c3)nn2COC(=O)C(C)(C)C)ccn1 [Example 14, 3-(4-isobutoxy-3-nitrophenyl)-5-(2-methyl-4-pyridyl)-N-pivaloyloxymethyl-1,2,4-triazole]	43.0
CCCCOc1ccc(-c2n[nH]c(-c3ccncc3)n2)cc1[N+](=O)[O-] [Example 15, 3-(4-butoxy-3-nitrophenyl)-5-(4-pyridyl)-1,2,4-triazole]	41.2
CC(C)Oc1ccc(-c2nc(-c3ccncc3)n[nH]2)cc1[N+](=O)[O-] [Example 16, 5-(4-isopropoxy-3-nitrophenyl)-3-(4-pyridyl)-1,2,4-triazole]	36.1

SMILES	Reduction rate of serum uric acid level [%]
Cc1cc(-c2n[nH]c(-c3ccc(OCC(C)C)c(C#N)c3)n2)ccn1 [Example 20, 3-(2-methyl-4-pyridyl)-5-(3-cyano-4-isobutoxyphenyl)-1,2,4-triazole]	67.5
COc1ccc(-c2nc(-c3ccnc(C)c3)n[nH]2)cc1[N+](=O)[O-] [Example 21, 3-(2-methyl-4-pyridyl)-5-(3-nitro-4-methoxyphenyl)-1,2,4-triazole]	52.9
Cc1cc(-c2n[nH]c(-c3ccc(OCC4CC4)c(C#N)c3)n2)ccn1 [Example 22, 3-(2-methyl-4-pyridyl)-5-(3-cyano-4-cyclopropylmethoxyphenyl)-1,2,4-triazole]	32.6
Cc1cc(-c2nc(-c3ccnc(C#N)c3)n[nH]2)ccn1 [Example 23, 3-(2-cyano-4-pyridyl)-5-(2-methyl-4-pyridyl)-1,2,4-triazole]	41.1
COc1ccc(COc2ccc(-c3nc(-c4ccnc(C)c4)n[nH]3)cc2C#N)cc1 [Example 24, 3-(2-methyl-4-pyridyl)-5-[3-cyano-4-(4-methoxybenzyloxy)phenyl]-1,2,4-triazole]	38.3
Cc1cc(-c2n[nH]c(-c3ccc(OCCC(C)C)c(C#N)c3)n2)ccn1 [Example 25, 3-(2-methyl-4-pyridyl)-5-(3-cyano-4-isopentyloxyphenyl)-1,2,4-triazole]	47.2
COc1ccc(-c2nc(-c3ccnc(C)c3)n[nH]2)cc1C#N [Example 26, 3-(2-methyl-4-pyridyl)-5-(3-cyano-4-methoxyphenyl)-1,2,4-triazole]	37.9
Cc1cc(-c2nc(-c3ccnc(Cl)c3)n[nH]2)ccn1 [Example 27, 3-(2-chloro-4-pyridyl)-5-(2-methyl-4-pyridyl)-1,2,4-triazole]	32.9
C#CCOc1ccc(-c2nc(-c3ccnc(C)c3)n[nH]2)cc1C#N [Example 28, 3-(2-methyl-4-pyridyl)-5-(3-cyano-4-propargyloxyphenyl)-1,2,4-triazole]	35.3
Cc1cc(-c2n[nH]c(-c3ccc(OCCOCCOCCCl)c(C#N)c3)n2)ccn1 [Example 29, 3-(2-methyl-4-pyridyl)-5-[3-cyano-4-{(<2-chloroethoxy>ethoxy)ethoxy}phenyl]-1,2,4-triazole]	40.7
COCCOc1ccc(-c2nc(-c3ccnc(C)c3)n[nH]2)cc1C#N [Example 31, 3-(2-methyl-4-pyridyl)-5-(3-cyano-4-methoxyethoxyphenyl)-1,2,4-triazole]	36.5
COCCOCCOc1ccc(-c2nc(-c3ccnc(C)c3)n[nH]2)cc1C#N [Example 32, 3-(2-methyl-4-pyridyl)-5-[3-cyano-4-{(2-methoxyethoxy)ethoxy}phenyl]-1,2,4-triazole]	52.0
COCCOCCOCCOc1ccc(-c2nc(-c3ccnc(C)c3)n[nH]2)cc1C#N [Example 33, 3-(2-methyl-4-pyridyl)-5-[3-cyano-4-{(<2-methoxyethoxy>ethoxy)ethoxy}phenyl]-1,2,4-triazole]	44.7
N#Cc1cc(-c2n[nH]c(-c3cc[n+]([O-])cc3)n2)ccn1 [Example 35, 3-(2-cyano-4-pyridyl)-5-(1-oxy-4-pyridyl)-1,2,4-triazole]	46.8
N#Cc1cc(-c2n[nH]c(-c3ccnc(Cl)c3)n2)ccn1 [Example 37, 3-(2-cyano-4-pyridyl)-5-(2-chloro-4-pyridyl)-1,2,4-triazole]	33.6

same assay, conditions: male Wistar rats, 1 mg/5 ml/kg in 0.5% methylcellulose, blood collected 6 hours after administration

SMILES	Reduction rate of serum uric acid level [%]
CC(C)COc1ccc(-c2n[nH]c(-c3ccnc(Cl)c3)n2)cc1[N+](=O)[O-] [Example 17, 5-(2-chloro-4-pyridyl)-3-(4-isobutoxy-3-nitrophenyl)-1,2,4-triazole]	40.6

Reference: US7074816B2, “1 2 4-triazole compound” (Fuji Yakuhin Co., Ltd., priority 2002, dated 2006)
